Columns and labels:
[1] = target: T1, HPK1 protein (Homo sapiens, UniProt Q92918); assay: HPK1 enzyme inhibition assay (ADP-Glo); type: biochemical; details: MBP substrate, ATP, ADP-Glo readout
T1 construct: purchased Signal Chem M23-11G-10
T1 sequence (Q92918 1-346 limits assumed): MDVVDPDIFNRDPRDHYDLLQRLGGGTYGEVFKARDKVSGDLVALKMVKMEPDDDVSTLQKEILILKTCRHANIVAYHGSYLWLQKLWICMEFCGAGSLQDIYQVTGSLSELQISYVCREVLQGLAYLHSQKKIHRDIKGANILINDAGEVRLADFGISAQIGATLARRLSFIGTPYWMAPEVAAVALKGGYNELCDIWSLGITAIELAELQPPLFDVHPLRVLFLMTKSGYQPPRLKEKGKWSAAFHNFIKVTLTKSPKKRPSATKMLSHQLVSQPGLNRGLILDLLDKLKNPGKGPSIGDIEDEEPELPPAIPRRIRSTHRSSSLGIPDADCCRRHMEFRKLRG
Experimental: The compound was dissolved in 100% DMSO at the concentration of 10 mM. The HPK1 protein was purchased from Signal Chem (M23-11G-10). 2.5 μL per well of 2×HPK1 protein was added to assay plate containing the test compound, centrifuged at 1500 rpm for 1 minute, and then incubated at 25° C. for 60 minutes. MBP protein was purchased from Signal Chem (M42-51N) and ATP was purchased from Promega (V9102). The two were added 2.5 μL per well mixture of 2×MBP (0.2 ug/ul) and ATP (20 μM), centrifuged at 1500 rpm for 1 minute, then incubated at 25° C. for 60 minutes. Then added 5 μL of ADP-Glo from Promega (V9102) to the assay plate and depleted the unconsumed ATP for 60 minutes. Then centrifuged at 1500 rpm for 1 minute and incubated at 25° C. for 60 minutes. Finally, 10 μL of the kinase assay reagent from Promega (V9102) was added to the assay plate to convert ADP to ATP, centrifuged at 1500 rpm for 1 minute, incubate at 25° C. for 40 minutes. After 40 minutes incubation, the […] was determined. Based on the results, the IC50 value of the compound was calculated.

[2] = system: HPK1 p-SLP-76; assay: HPK1 p-SLP-76 inhibition assay in human PBMC (HTRF); type: cell-based; details: 6 h compound, anti-CD3 stimulation 20 min
Experimental: Human PBMC were purchased from OriCells (FPB004F-C). Before compound treatment, PBMC were starved in PRMI-1640 medium supplemented with 0.5% FBS overnight. The cell density was adjusted to 1*10^7 cells/mL in assay medium (RPMI-1640 no phenol red with 0.5% FBS) and 16 μL cell suspension was transferred per well to a 384-well plate (Corning #3765). 6× solution of test compound was prepared in assay medium and 4 μL was added per well to the 384-well plate. The plate was then incubated at 37° C., 5% CO2 for 6 h. PBMC in 384-well plate were stimulated with anti-CD3 (BD Biosciences #555329, final conc. is 10 ug/mL) for 20 min at 37° C., 5% CO2 by adding 4 μL 6× antibody solution per well. Phospho-SLP76 HTRF kit was purchased from Cisbio (63ADK076PEH). 8 μL 4× Lysis Buffer was added to 384-well plate after anti-CD3 stimulation. The plate was centrifuged at 1,000 rpm for 1 min, shaken at 250 rpm for 60 min and centrifuged again at 1,000 rpm for 5 min. Afterwards the cell lysates were transferred to the assay plate (Greiner #784075) with 16 μL per well. 4 μL detection antibody mix per well prepared in Detection Buffer was added to the assay plate, followed by centrifugation at 1,000 rpm for 1 min and incubation at 25° C. overnight.

[3] = target: T2, HPK1 protein (Mus musculus, UniProt P70218); assay: HPK1 protein degradation in mouse pan T cell (western blot); type: cell-based; details: 18 h incubation
T2 construct: the CD3+ T cell population was isolated from spleenocytes of mice; endogenous in cells; host or cells: primary mouse splenic CD3+ (pan) T cells
T2 sequence (P70218 1-827): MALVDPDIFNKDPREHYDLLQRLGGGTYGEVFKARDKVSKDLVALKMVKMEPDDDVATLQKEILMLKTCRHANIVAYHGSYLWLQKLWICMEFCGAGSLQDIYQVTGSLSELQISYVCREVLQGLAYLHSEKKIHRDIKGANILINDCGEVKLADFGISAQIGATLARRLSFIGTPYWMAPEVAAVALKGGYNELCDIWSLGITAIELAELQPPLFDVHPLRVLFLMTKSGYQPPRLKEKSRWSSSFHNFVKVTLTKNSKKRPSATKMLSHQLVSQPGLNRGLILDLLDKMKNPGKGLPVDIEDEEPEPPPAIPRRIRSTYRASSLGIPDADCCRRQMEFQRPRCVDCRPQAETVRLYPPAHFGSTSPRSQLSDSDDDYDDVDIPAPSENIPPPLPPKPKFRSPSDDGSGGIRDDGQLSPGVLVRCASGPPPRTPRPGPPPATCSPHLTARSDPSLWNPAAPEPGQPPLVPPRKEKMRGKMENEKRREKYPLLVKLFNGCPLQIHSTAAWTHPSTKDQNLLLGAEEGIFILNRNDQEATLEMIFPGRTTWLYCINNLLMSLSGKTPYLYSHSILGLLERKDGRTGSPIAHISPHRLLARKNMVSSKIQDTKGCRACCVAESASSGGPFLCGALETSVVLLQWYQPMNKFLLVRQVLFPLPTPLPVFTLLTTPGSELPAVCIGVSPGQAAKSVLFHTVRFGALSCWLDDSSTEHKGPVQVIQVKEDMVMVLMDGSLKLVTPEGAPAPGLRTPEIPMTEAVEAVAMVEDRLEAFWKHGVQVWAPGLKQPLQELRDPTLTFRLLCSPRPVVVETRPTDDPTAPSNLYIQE
Experimental: HPK1 protein degradation in mouse pan T cell: the CD3+ T cell population was isolated from spleenocytes of mice by using Pan T cell isolation kit from Miltenyi Biotec (130-095-130) following manufacture's instruction. The isolated T cells were then incubated with a variety of concentrations of compound. After incubation for 18 h, the cells were collected and lysed. The protein concentration was determined by BCA protein assay kit from Thermo (23227). The HPK1 protein level was determined by western blots, using anti-human HPK1 polyclonal antibody from CST (4472). Proteins were loaded into each well of the pre-casting gels and subjected to electrophoretic separation by SDS-PAGE. The protein resolved by SDS-PAGE were transferred to PVDF, blocked by 5% skim milk and probed with anti-human HPK1 antibody or β-actin antibody from CST (3700S), using following standard western blotting procedure.

## CCc1c[nH]c2ncc(-c3cccc(N4CCN(C(=O)CCCCCCCOc5cccc6c5CN(C5CCC(=O)NC5=O)C6=O)CC4=O)c3)c(Cl)c12 (centres unmarked) [Example 1]
[1]
  IC50: 10 to 100 nM
[2]
  IC50: 3000 to 10000 nM

## CCc1c[nH]c2ncc(-c3cccc(N4CCN(CCC(=O)N5CCN(c6ccc7c(c6)C(=O)N(C6CCC(=O)NC6=O)C7=O)CC5)CC4=O)c3)c(Cl)c12 (centres unmarked) [Example 24]
[1]
  IC50: 10 to 100 nM
[3]
  Dmax: 91%

## CCc1c[nH]c2ncc(-c3cccc(N4CCN(CCCN5CCN(c6ccc7c(c6)C(=O)N(C6CCC(=O)NC6=O)C7=O)CC5)CC4=O)c3)c(Cl)c12 (centres unmarked) [Example 27]
[1]
  IC50: 10 to 100 nM
[3]
  Dmax: 95%

## CCc1c[nH]c2ncc(-c3cccc(N4CCN(CC(=O)N5CCN(c6cc7c(cc6F)C(=O)N(C6CCC(=O)NC6=O)C7=O)CC5)CC4=O)c3)c(Cl)c12 (centres unmarked) [Example 29, 5-(4-(2-(4-(3-(4-chloro-3-ethyl-1H-pyrrolo[2,3-b]pyridin-5-yl)phenyl)-3-oxopiperazin-1-yl)acetyl)piperazin-1-yl)-2-(2,6-dioxopiperidin-3-yl)-6-fluoroisoindoline-1,3-dione]
[1]
  IC50: 10 to 100 nM
[3]
  Dmax: 80%

## CCc1c[nH]c2ncc(-c3cccc(N4CCN(CCOCCN5CCN(c6cc7c(cc6F)C(=O)N(C6CCC(=O)NC6=O)C7=O)CC5)CC4=O)c3)c(Cl)c12 (centres unmarked) [Example 33]
[1]
  IC50: 10 to 100 nM
[3]
  Dmax: 60%

## O=C1CCC(N2Cc3cc(N4CCC(OCC(=O)N5CCN(c6cccc(-c7cnc8[nH]cc(C#Cc9ccccn9)c8c7Cl)c6)C(=O)C5)CC4)ccc3C2=O)C(=O)N1 (centres unmarked) [Example 57, 3-(5-(4-(2-(4-(3-(4-chloro-3-(pyridin-2-ylethynyl)-1H-pyrrolo[2,3-b]pyridin-5-yl)phenyl)-3-oxopiperazin-1-yl)-2-oxoethoxy)piperidin-1-yl)-1-oxoisoindolin-2-yl)piperidine-2,6-dione]
[1]
  IC50: 100 to 1000 nM
[3]
  Dmax: 0%

## CCc1c[nH]c2ncc(-c3cccc(N4CCN(CCCCNc5ccc6c(c5)C(=O)N(C5CCC(=O)NC5=O)C6=O)CC4=O)c3)c(Cl)c12 (centres unmarked) [Example 59]
[1]
  IC50: 10 to 100 nM
[3]
  Dmax: 60%

## O=C1CCC(N2Cc3cc(F)c(N4CCC(CCN5CCN(c6cccc(-c7cnc8[nH]cc(C9CC9)c8c7Cl)c6)C(=O)C5)CC4)cc3C2=O)C(=O)N1 (centres unmarked) [Example 61]
[1]
  IC50: 100 to 1000 nM
[3]
  Dmax: 50%

## O=C1CCC(N2Cc3cc(N4CCC(CCN5CCN(c6cccc(-c7cnc8[nH]cc(C9CC9)c8c7Cl)c6)C(=O)C5)CC4)c(F)cc3C2=O)C(=O)N1 (centres unmarked) [Example 62, 3-(5-(4-(2-(4-(3-(4-chloro-3-cyclopropyl-1H-pyrrolo[2,3-b]pyridin-5-yl)phenyl)-3-oxopiperazin-1-yl)ethyl)piperidin-1-yl)-6-fluoro-1-oxoisoindolin-2-yl)piperidine-2,6-dione]
[1]
  IC50: 10 to 100 nM
[3]
  Dmax: 95%

## O=C1CCC(c2ccc(N3CCN(CCCN4CCN(c5cccc(-c6cnc7[nH]cc(C8CC8)c7c6Cl)c5)C(=O)C4)CC3)cc2)C(=O)N1 (centres unmarked) [Example 75, 3-(4-(4-(3-(4-(3-(4-chloro-3-cyclopropyl-1H-pyrrolo[2,3-b]pyridin-5-yl)phenyl)-3-oxopiperazin-1-yl)propyl)piperazin-1-yl)phenyl)piperidine-2,6-dione]
[1]
  IC50: ≤ 10 nM
[3]
  Dmax: 55%

## CCc1c[nH]c2ncc(-c3cccc(N4CCN(CC5CN(c6ccc7c(c6)C(=O)N(C6CCC(=O)NC6=O)C7=O)C5)CC4=O)c3)c(Cl)c12 (centres unmarked) [Example 89]
[1]
  IC50: 10 to 100 nM

## CCc1c[nH]c2ncc(-c3cccc(N4CCN(Cc5ccc6c(c5)C(=O)N(C5CCC(=O)NC5=O)C6=O)CC4=O)c3)c(Cl)c12 (centres unmarked) [Example 90, 5-((4-(3-(4-chloro-3-ethyl-1H-pyrrolo[2,3-b]pyridin-5-yl)phenyl)-3-oxopiperazin-1-yl)methyl)-2-(2,6-dioxopiperidin-3-yl)isoindoline-1,3-dione]
[1]
  IC50: 10 to 100 nM

## O=C1CCC(N2C(=O)c3ccc(CN4CCC(OC(=O)N5CCN(c6cccc(-c7cnc8[nH]cc(C9CC9)c8c7Cl)c6)C(=O)C5)CC4)cc3C2=O)C(=O)N1 (centres unmarked) [Example 94, 1-((2-(2,6-dioxopiperidin-3-yl)-1,3-dioxoisoindolin-5-yl)methyl)piperidin-4-yl 4-(3-(4-chloro-3-cyclopropyl-1H-pyrrolo[2,3-b]pyridin-5-yl)phenyl)-3-oxopiperazine-1-carboxylate]
[1]
  IC50: 10 to 100 nM

## O=C1CCN(c2cnc3cc(C4CCN(CCCN5CCN(c6cccc(-c7cnc8[nH]cc(C9CC9)c8c7Cl)c6)C(=O)C5)CC4)ccn23)C(=O)N1 [Example 96, 1-(7-(1-(3-(4-(3-(4-chloro-3-cyclopropyl-1H-pyrrolo[2,3-b]pyridin-5-yl)phenyl)-3-oxopiperazin-1-yl)propyl)piperidin-4-yl)imidazo[1,2-a]pyridin-3-yl)dihydro pyrimidine-2,4 (1H,3H)-dione]
[1]
  IC50: ≤ 10 nM

## CCc1c[nH]c2ncc(-c3cccc(N4CCN(CCc5ccc6c(c5)C(=O)N(C5CCC(=O)NC5=O)C6=O)CC4=O)c3)c(Cl)c12 (centres unmarked) [Example 97, 5-(2-(4-(3-(4-chloro-3-ethyl-1H-pyrrolo[2,3-b]pyridin-5-yl)phenyl)-3-oxopiperazin-1-yl)ethyl)-2-(2,6-dioxopiperidin-3-yl)isoindoline-1,3-dione]
[1]
  IC50: ≤ 10 nM

## O=C1CCC(N2C(=O)c3ccc(CCN4CCC(OC(=O)N5CCN(c6cccc(-c7cnc8[nH]cc(C9CC9)c8c7Cl)c6)C(=O)C5)CC4)cc3C2=O)C(=O)N1 (centres unmarked) [Example 98, 1-(2-(2-(2,6-dioxopiperidin-3-yl)-1,3-dioxoisoindolin-5-yl)ethyl)piperidin-4-yl 4-(3-(4-chloro-3-cyclopropyl-1H-pyrrolo[2,3-b]pyridin-5-yl)phenyl)-3-oxopiperazine-1-carboxylate]
[1]
  IC50: 10 to 100 nM

— patent US20240368159A1, “HPK1 DEGRADERS, COMPOSITIONS COMPRISING THE HPK1 DEGRADER, AND METHODS OF USING THE SAME” (BIOFRONT LTD, priority 2021, published 2024)
